Some test systems named below: 786-0 renal; HCC-2998 colon; HCT-116 colon; NCI-H226 lung; OVCAR-8 ovarian; SF-295 CNS; SN12C renal; SNB-19 CNS; UACC-257 melanoma; A498 renal.
What all share (test): growth of human tumour cells (NCI), 48 h

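Results reflect a 48-hour exposure of cells in 96-well plates to compound at five concentrations. Here, GI50 denotes the concentration required for 50% inhibition of growth. TGI denotes the concentration required for complete inhibition of growth.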

`CCC1(CC)C(=O)N(C(=O)c2ccc(Cl)cc2)N(C(=O)c2ccccc2Cl)C1=O`: the TGI with 786-0 renal was above 100 µM; with HCC-2998 colon, above 100 µM; in the assay with HCT-116 colon, above 100 µM; in the assay with NCI-H226 lung, 31.5 µM; with OVCAR-8 ovarian, above 100 µM; in the assay with SF-295 CNS, above 100 µM. Further, the TGI with SN12C renal, in the assay on SNB-19 CNS and with UACC-257 melanoma was above 100 µM throughout.

As for `O=C1NC(N2CCCC(CO)C2)=N/C1=C\c1ccc(O)cc1` (stereo not given), the TGI in the assay with 786-0 renal, in the assay on HCC-2998 colon, in the assay on HCT-116 colon, in the assay with NCI-H226 lung, in the assay with OVCAR-8 ovarian and in the assay with SF-295 CNS was above 100 µM throughout. Also, the TGI in the assay with SN12C renal, with SNB-19 CNS and with UACC-257 melanoma was above 100 µM in each case.

In the case of `Nc1c2ccccc2nc2ccc(C(=O)Nc3ccc(S(N)(=O)=O)cc3)cc12`, the TGI with 786-0 renal, in the assay on HCC-2998 colon, with HCT-116 colon, with NCI-H226 lung, with OVCAR-8 ovarian and with SF-295 CNS was above 100 µM in each case. Further, the TGI in the assay with SN12C renal, with SNB-19 CNS and in the assay on UACC-257 melanoma was above 100 µM in each case.

Regarding `O=C(N/N=C/c1cc(-c2ccccc2Cl)c(-c2ccccc2Cl)o1)c1ccncc1`, the TGI in the assay on 786-0 renal, in the assay with A498 renal, with HCT-116 colon, in the assay on NCI-H226 lung, in the assay with SF-295 CNS and in the assay with SN12C renal was above 100 µM each time. The TGI in the assay with SNB-19 CNS and in the assay with UACC-257 melanoma was above 100 µM throughout.

As for `COC[C@H](Cc1ccccc1)N=Cc1ccccc1`, the TGI with 786-0 renal, in the assay with HCC-2998 colon, in the assay with HCT-116 colon, with OVCAR-8 ovarian, in the assay with SF-295 CNS and in the assay on SN12C renal was above 100 µM in each case. Further, the TGI in the assay with SNB-19 CNS and with UACC-257 melanoma was above 100 µM throughout.

With `c1ccc(C2(c3cc4ccccc4[nH]3)OCCO2)cc1`, the TGI in the assay on 786-0 renal, in the assay on A498 renal, in the assay on HCT-116 colon, in the assay on NCI-H226 lung, with OVCAR-8 ovarian and with SF-295 CNS was above 100 µM each time. For the same compound, the TGI in the assay on SN12C renal was above 100 µM; with SNB-19 CNS, above 100 µM; in the assay on UACC-257 melanoma, 99.8 µM.

For `CC(C)Oc1c(O)c2c3c(oc(=O)n3C=CC2c2ccccc2F)c1OC(C)C` (stereo not given), the TGI in the assay with 786-0 renal is above 100 µM; with A498 renal, above 100 µM; with HCT-116 colon, 66.7 µM; in the assay with NCI-H226 lung, above 100 µM; with OVCAR-8 ovarian, above 100 µM; in the assay with SF-295 CNS, 78.1 µM. The TGI in the assay with SN12C renal, in the assay on SNB-19 CNS and with UACC-257 melanoma was above 100 µM each time.

Regarding `O=c1n(CCO)nc2n1CCCN2`, the TGI in the assay with 786-0 renal, in the assay on HCC-2998 colon, with HCT-116 colon, in the assay on NCI-H226 lung, in the assay with OVCAR-8 ovarian and with SF-295 CNS was above 100 µM throughout. Also, the TGI in the assay on SN12C renal and in the assay on SNB-19 CNS was above 100 µM each time.

As to `O=c1[nH]c2cccccc-2c1-c1nc2ccccc2[nH]1`, the TGI is 41 µM in the assay with 786-0 renal; above 100 µM in the assay with HCC-2998 colon; above 100 µM with HCT-116 colon; 35.6 µM with NCI-H226 lung; 96.7 µM in the assay on OVCAR-8 ovarian; above 100 µM in the assay on SF-295 CNS. Further, the results for the TGI in the assay with SN12C renal, in the assay on SNB-19 CNS and in the assay on UACC-257 melanoma were above 100 µM, 88 µM and above 100 µM, respectively.

With `O=C(CSCC(=O)N/N=C\c1cc(Br)cc(Br)c1O)N/N=C\c1cc(Br)cc(Br)c1O`, the TGI in the assay on 786-0 renal was above 100 µM; in the assay with HCT-116 colon it was above 100 µM; with NCI-H226 lung, 58.2 µM; with OVCAR-8 ovarian it was 68 µM; in the assay with SF-295 CNS it was above 100 µM; in the assay with SN12C renal, above 100 µM. Further, the TGI with SNB-19 CNS was above 100 µM; in the assay on UACC-257 melanoma, 62 µM.

Regarding `COc1ccccc1C1C(Cl)C(=O)N1NC(=O)Cc1ccccc1` (stereo not given), the TGI in the assay on 786-0 renal, in the assay with HCC-2998 colon, in the assay on HCT-116 colon, in the assay with NCI-H226 lung, in the assay on OVCAR-8 ovarian and in the assay with SF-295 CNS was above 100 µM in each case. Also, the TGI with SN12C renal, in the assay on SNB-19 CNS and in the assay on UACC-257 melanoma was above 100 µM throughout.

For the compound `Nc1cc(N)c2nc(-c3ccccc3)c(Sc3ccc(F)cc3)nc2c1`, the GI50 is 27.5 µM in the assay with A498 renal; 14.7 µM with HCT-116 colon; 19 µM in the assay with NCI-H226 lung; 16.7 µM in the assay with OVCAR-8 ovarian; 13.9 µM in the assay on SF-295 CNS; 17.6 µM with SN12C renal. Moreover, in the assay on SNB-19 CNS, the GI50 is 20 µM. Also, the TGI amounted to 46 µM in the assay on A498 renal; 28.3 µM with HCT-116 colon; 46.4 µM in the assay on NCI-H226 lung; 34.9 µM in the assay with OVCAR-8 ovarian; 29.9 µM in the assay on SF-295 CNS; 35.4 µM in the assay on SN12C renal. In the assay on SNB-19 CNS, this compound returned a TGI of 41.7 µM.

`Cc1cc(C)n(CN(Cn2nc(C)cc2C)c2ccc(N(Cn3nc(C)cc3C)Cn3nc(C)cc3C)cc2)n1`: the TGI in the assay on 786-0 renal worked out at 43.4 µM; with A498 renal, 63.2 µM; in the assay on HCT-116 colon, 31.3 µM; in the assay with OVCAR-8 ovarian, 77.4 µM; in the assay with SF-295 CNS, 83.8 µM; with SN12C renal it was 51.9 µM. Also, the TGI was determined as 64.5 µM in the assay on SNB-19 CNS and 40.6 µM in the assay on UACC-257 melanoma.

Take `N#Cc1ccc(/C=C2\Cc3ccccc3C2=O)cc1`: the TGI in the assay on 786-0 renal, in the assay on HCC-2998 colon, with HCT-116 colon, in the assay on NCI-H226 lung, with OVCAR-8 ovarian and in the assay with SF-295 CNS was above 100 µM in each case. The TGI in the assay with SN12C renal, with SNB-19 CNS and with UACC-257 melanoma was above 100 µM each time.

`COCN1C(=O)[C@@H]2C[C@@H](OC/C=C/CBr)CN2C(=O)c2ccccc21`: the TGI in the assay on 786-0 renal was 53.9 µM; in the assay on A498 renal, 66.4 µM; with HCT-116 colon it was 42.7 µM; in the assay with NCI-H226 lung, 29.9 µM; in the assay on OVCAR-8 ovarian, 34 µM; with SF-295 CNS, 46.5 µM. For the same compound, the figures for the TGI in the assay with SN12C renal, in the assay on SNB-19 CNS and with UACC-257 melanoma were 33.3 µM, 67.2 µM and 37.6 µM, respectively.

The record behind these values is PubChem BioAssay (NCI).
